Experiment [1] concerns LPS-induced TNF-α secretion from human peripheral blood mononuclear cells (PBMC). As to the kind of experiment: PBMC Assay: inhibition of LPS-induced TNF-α secretion. The following applies: LPS-stimulated human PBMC, TNF-α ELISA. Also on record: key: An “active” compound is defined as a compound having an IC50 below 500 nM. The experiment is classed as cell-based. How it is done: The ability of compounds of this invention to inhibit TNF-α production was assessed by using human peripheral blood mononuclear cells (“PBMC”) which synthesize and secrete TNF-α when stimulated with lipopolysaccharide.
Compound test solutions were made by making 5 fold serial dilutions in DMSO, which dilutions were then diluted to 5× stocks by diluting with MEM, 2% heat inactivated fetal bovine serum (“FBS”), 20 mM HEPES, 2 mM L-glutamine, and 1% penicillin/streptomycin.
PBMC's were isolated from human blood as follows. Whole blood samples were collected from human volunteers into Vacutainer™ CPT from Becton Dickinson. Tubes were mixed and centrifuged at room temperature (18-25° C.) in a horizontal rotor for a minimum of 15 minutes at 1500-1800 RCF (relative centrifugal force). For each donor, the buffy coat layers were pooled into a single tube and washed twice with phosphate buffered saline (“PBS”). The cell pellet was resuspended in MEM, 2% heat inactivated fetal bovine serum (“FBS”), 20 mM HEPES, 2 mM L-glutamine, and 1% penicillin/streptomycin. Total cell number was determined using a hemocytometer and the cell suspension was adjusted to 2×10^6 cells/mL.
0.1 mL of cell suspension was added to each well of a 96-well cell culture plate. 30 μL of a compound test solution was added, and the cells were incubated in a 37° C./5% CO2 incubator for 1 hour. 20 μL of 7.5 ng/mL lipopolysaccharide (LPS E. Coli K-235) was then added to each well, and the cells were returned to the 37° C./5% CO2 incubator for 16-20 hours. The cells were centrifuged for 15 minutes at 1100 RCF. Approximately 0.12 mL of the supernatant was transferred into a clean 96 well polypropylene plate. The samples were either assayed immediately or were stored at −80° C. until ready for assay. TNF-α levels were determined in each sample using a human TNF-α ELISA assay such as that described below.
TNF-α levels were determined using the following assay. TNF-alpha antibody coated plates were prepared by adding 150 μL of 2 μg/mL anti-TNF-α purified mouse monoclonal IgG in Carbonate-Bicarbonate buffer (BupH™ Carbonate-Bicarbonate Buffer Pack) to wells of a 96-well Immulon 4 plate (Immulon 4 ELISA Flat Bottom Plate; Dynex, catalog number 011-010-3855) and incubated overnight at 2-8° C. Coating solution was removed and 200 μL of “blocking buffer” (20 mM HEPES pH 7.4, 150 mM NaCl, 2% BSA) was added and plates were stored 2-8° C. until ready to use. A ten-point recombinant human TNF-α standard curve was prepared by a 1:2 serial dilution in “sample diluent” (20 mM HEPES, pH 7.4, 150 mM NaCl, 2 mM MgCl2, 1% BSA) with a top concentration of 6000 pg/mL.
Blocking solution was removed from TNF-α ELISA plates by washing five times with 300 μL of “wash buffer” (20 mM HEPES, pH 7.4, 150 mM NaCl, 2 mM MgCl2, 0.02% Tween-20). 50 μL of “sample diluent” was added to all wells, and then either 50 μL of a TNF-α standard curve solution or test compound supernatant was added to all wells. The plate was incubated at room temperature for one hour with shaking (300 rpm). The plate was washed wash five times with 300 μL “wash buffer”. 100 μL of 0.2 μg/mL biotinylated goat anti-human TNF-α in “antibody diluent” (20 mM HEPES, pH 7.4, 150 mM NaCl, 2 mM MgCl2, 1% BSA, 0.02% Tween-20) was added per well, and the plate was incubated at room temperature for one hour with shaking (300 rpm). The plate was washed wash five times with 300 μL “wash buffer” per well. 100 μL of 0.02 μg/mL streptavidin alkaline phosphatase in “antibody diluent” was added per well, and the plate was incubated at room temperature for one hour with shaking (300 rpm). The plate was washed wash five times with 300 μL wash buffer per well. 200 μL of 1 mg/mL pNPP (p-nitrophenyl phosphate) in diethanolamine buffer with 0.5 mM MgCl2 was added per well, and the plate was incubated for 30 to 45 minutes at room temperature with shaking (300 rpm). […]
Background: In an ELISA, binding on a coated surface is turned into a signal by an enzyme label.

Experiment [2] deals with activated p38α enzyme (Homo sapiens, UniProt Q16539). As to the kind of experiment: p38 Biochemical Assay. Also on record: key: An “active” compound is defined as a compound having an IC50 below 500 nM. The following applies: 5 nM activated p38α, 1 uM ATF-2 substrate, 10 μM ATP. On the procedure: P38 activity was assayed at room temperature in a 100 μl reaction containing 5 nM activated p38α enzyme and 1 uM ATF-2 (Activating Transcription Factor 2 fusion protein) as the substrate in 25 mM HEPES (pH 7.4), 100 μM Vanadate, 1 mM DTT, 10 mM MgCl2 and 10 μM [[…]-^33P]-ATP (˜0.1 μCi P^33/reaction). The reaction was terminated after 30-40 minutes by adding 25% TCA, let stand for 5 minutes and then transferred directly to a GF-B membrane filter plate. The filter was washed twice for 30 seconds with 0.5% phosphoric acid using a Tomtec Mach III Automated Harvestor. After washing, the vacuum was continued for 30 seconds to dry the filter. Approximately 30 μl of scintillant was added per well to the filter plate and then read in a Liquid Scintillation Counter (Packard TopCount HTS).

We go through 14 compounds from patent publication US7521447B2, “P38 inhibitors and methods of use thereof” (Array Biopharma Inc., priority 2003, dated 2009).

SMILES strings stand for the structures.

Sequence of activated p38α enzyme (Q16539 whole entry, the tested form may be a part): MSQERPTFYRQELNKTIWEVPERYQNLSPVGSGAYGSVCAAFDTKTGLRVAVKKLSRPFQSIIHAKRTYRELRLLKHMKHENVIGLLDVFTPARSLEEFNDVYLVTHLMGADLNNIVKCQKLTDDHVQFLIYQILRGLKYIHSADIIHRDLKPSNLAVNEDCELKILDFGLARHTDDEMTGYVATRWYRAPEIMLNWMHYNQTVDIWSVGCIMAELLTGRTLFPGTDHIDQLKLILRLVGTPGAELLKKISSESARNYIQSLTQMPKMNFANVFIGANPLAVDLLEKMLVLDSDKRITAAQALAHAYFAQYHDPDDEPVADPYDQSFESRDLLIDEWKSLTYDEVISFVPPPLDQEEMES

Turning to `CC(C)Cn1ncc2cc(Nc3ccc(F)cc3)ccc21` [Compound 2h-2, (4-fluorophenyl)-(1-isobutyl-1H-indazol-5-yl)-amine], in experiment [1], the “PBMC IC50 (nM)” value is “active”. Moreover, the “p38 Inhibition IC50 (nM)” value in experiment [2] was “active”.
Regarding `Cc1ccccc1Nc1ccc2c(cnn2CC(C)C)c1` [Compound 2h-10, (1-isobutyl-1H-indazol-5-yl)-O-tolyl-amine], the “PBMC IC50 (nM)” value in experiment [1] is reported as “active”. Further, the “p38 Inhibition IC50 (nM)” value in experiment [2] is reported as “active”.
As to `CC(C)Cn1ncc2cc(C(O)c3ccc(F)cc3F)ccc21` (stereo not shown) [Compound 4f-1, (2,4-difluorophenyl)-(1-isobutyl-1H-indazol-5-yl)-methanol], the “PBMC IC50 (nM)” value in experiment [1] was “active”. The “p38 Inhibition IC50 (nM)” value in experiment [2] was “active”.
As to `CC(C)Cn1ncc2cc(C(O)c3ccc(F)cc3)ccc21` (stereo not shown) [Compound 4f-2, (4-fluorophenyl)-(1-isobutyl-1H-indazol-5-yl)-methanol], the “PBMC IC50 (nM)” value in experiment [1] is given as “active”. Also, the “p38 Inhibition IC50 (nM)” value in experiment [2] is listed as “active”.
Consider `CC(C)Cn1ncc2cc(C(O)c3ccc(Cl)cc3Cl)ccc21` (stereo not shown) [Compound 4f-9, (2,4-dichlorophenyl)-(1-isobutyl-1H-indazol-5-yl)-methanol], for which, in experiment [1], the “PBMC IC50 (nM)” value was “inactive”. Also, the “p38 Inhibition IC50 (nM)” value in experiment [2] is “active”.
In the same order, the values of `CC(C)Cn1ncc2cc(C(=O)c3ccc(F)cc3F)ccc21` [Compound 5f-1, (2,4-difluorophenyl)-(1-isobutyl-1H-indazol-5-yl)-methanone] are “active” and “active”.
For `CC(C)Cn1ncc2cc(C(=O)c3ccc(F)cc3)ccc21` [Compound 5f-2, (4-fluorophenyl)-(1-isobutyl-1H-indazol-5-yl)-methanone], in that order: “active” and “active”.
For `CC(C)Cn1ncc2cc(C(=O)c3ccc(Cl)cc3F)ccc21` [Compound 5f-7, (4-chloro-2-fluorophenyl)-(1-isobutyl-1H-indazol-5-yl)-methanone], in that order: “active” and “active”.
In the case of `CC(C)Cn1ncc2cc(C(=O)c3ccc(Cl)cc3Cl)ccc21` [Compound 5f-9, (2,4-dichlorophenyl)-(1-isobutyl-1H-indazol-5-yl)-methanone], the “PBMC IC50 (nM)” value in experiment [1] is listed as “active”. Further, in experiment [2], the “p38 Inhibition IC50 (nM)” value is recorded as “active”.
Consider `Cc1ccccc1C(=O)c1ccc2c(cnn2CC(C)C)c1` [Compound 5f-10, (1-isobutyl-1H-indazol-5-yl)-O-tolyl-methanone], for which the “PBMC IC50 (nM)” value in experiment [1] is “active”. Moreover, in experiment [2], the “p38 Inhibition IC50 (nM)” value is reported as “active”.
`CC(C)Cn1ncc2cc(C(=NO)c3ccc(F)cc3F)ccc21` [Compound 7f-1, (2,4-difluorophenyl)-(1-isobutyl-1H-indazol-5-yl)-methanone oxime]: the “PBMC IC50 (nM)” value in experiment [1] is recorded as “active”. Moreover, in experiment [2], the “p38 Inhibition IC50 (nM)” value is recorded as “active”.
For the compound `CC(C)Cn1ncc2cc(C(=NO)c3ccc(F)cc3)ccc21` [Compound 7f-2, (4-fluorophenyl)-(1-isobutyl-1H-indazol-5-yl)-methanone oxime], the “PBMC IC50 (nM)” value in experiment [1] was “active”. Besides, the “p38 Inhibition IC50 (nM)” value in experiment [2] is recorded as “active”.
As for `CCON=C(c1ccc2c(cnn2CC(C)C)c1)c1ccc(F)cc1F` [Compound 7f-3, (2,4-difluorophenyl)-(1-isobutyl-1H-indazol-5-yl)-methanone O-ethyl-oxime], in experiment [1], the “PBMC IC50 (nM)” value is reported as “active”. Moreover, the “p38 Inhibition IC50 (nM)” value in experiment [2] is listed as “active”.
On to `CC(C)Cn1ncc2cc(Oc3ccc(F)cc3)c(C(=O)NCCN(C)C)cc21` [Compound 11g-10, 5-(4-fluorophenoxy)-1-isobutyl-1H-indazole-6-carboxylic acid (2-dimethylaminoethyl)-amide], for which the “PBMC IC50 (nM)” value in experiment [1] was “active”. For the same compound, the “p38 Inhibition IC50 (nM)” value in experiment [2] was “active”.
